In publication PMC5787524, “Discovery of a FLT3 inhibitor LDD1937 as an anti-leukemic agent for acute myeloid leukemia” (Oncotarget, 2017):
Values joined by “and” are separate entries in the source; they are usually repeats but may differ in a detail not shown here. Identical values can stand only once.

Columns and labels:
FLT3 = target: T1, FLT3 (Homo sapiens, UniProt P36888); assay: In vitro FLT3 kinase assay (HTRF); type: biochemical; conditions: recombinant FLT3, HTRF; read-out: IC50 FLT3 kinase activity
T1 construct: Recombinant proteins containing the FLT3 kinase domain were purchased from Carna biosciences (Japan); purchased Carna biosciences (Japan)
T1 sequence (P36888 610-943 limits assumed): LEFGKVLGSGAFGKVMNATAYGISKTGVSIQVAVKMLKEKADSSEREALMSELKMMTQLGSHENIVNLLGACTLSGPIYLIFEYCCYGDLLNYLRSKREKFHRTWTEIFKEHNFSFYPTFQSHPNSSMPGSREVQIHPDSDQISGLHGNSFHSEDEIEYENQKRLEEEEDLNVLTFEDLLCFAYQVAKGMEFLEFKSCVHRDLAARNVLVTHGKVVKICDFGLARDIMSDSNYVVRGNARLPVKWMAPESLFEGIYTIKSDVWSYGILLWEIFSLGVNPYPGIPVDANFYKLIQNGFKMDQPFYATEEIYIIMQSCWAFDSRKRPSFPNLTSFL
Protocol: The inhibition of the FLT3 kinase activity was measured with homogeneous, time-resolved fluorescence (HTRF) assays. Recombinant proteins containing the FLT3 kinase domain were purchased from Carna biosciences (Japan). Optimal enzyme, ATP, and substrate concentrations were established with the HTRF KinEASE kit (Cisbio, France) according to the manufacturer’s instructions. The FLT3 enzymes were mixed with serially diluted compounds and peptide substrates in a kinase reaction buffer (50 mM HEPES (pH 7.0), 500 μM ATP, 0.1 mM sodium orthovanadate, 5 mM MgCl2, 1 mM DTT, 0.01% bovine serum albumin (BSA), and 0.02% NaN3). After the addition of the reagents for detection, the TR-FRET signal was measured with a Victor multilabel reader (Perkin Elmer, Waltham, MA, USA). […] JAK2, JAK3, cMET, and RET in vitro kinase assays were also carried out using the HTRF assay kit.

MV-4-11 cells = assay: Cell viability / growth inhibition (EZ-Cytox), MV-4-11; type: cell-based, human; conditions: 72 h; called IC50 in supplementary text
Protocol: The cultured cells were incubated at 37°C with 5% CO2. Cell viability was assessed with a tetrazolium-based assay using the EZ-Cytox Cell Viability Assay kit (DaeilLab, Korea). Briefly, 2,000 ∼ 15,000 cells were plated in 96-well flat bottom plates in 100 µl of medium. The next day, the cells were treated with compounds along with dimethyl sulfoxide (DMSO, Fisher, Waltham, MA, USA) as a negative control. […] After incubation, the optical density (OD) was measured at a wavelength of 450 nm with a Victor multilabel reader (Perkin Elmer, Waltham, MA, USA).

[1] = Pharmacokinetics in mice (intravenous and oral); type: in vivo, ICR mice; conditions: for AUC1940/AUC1937 / AUC / Ae0–24 h / Cmax / GI24 h / Terminal half-life / Tmax: mice
Protocol: The protocols for the animal studies were approved by the Institute of Laboratory Animal Resources of Dongguk University, Seoul, South Korea (IACUC-2015-055-1). Five-week-old male Imprinting Control Region (ICR) mice were purchased from the Charles River Company Korea (Orient, Seoul, South Korea). Upon arrival, the animals were randomized and housed four per cage under strictly controlled environmental conditions (22-25°C and 48-52% relative humidity) with a 12 h light/dark cycle at an intensity of 150 to 300 Lux. All mice were provided food and water ad libitum and were then maintained during this study. In the intravenous study of LDD1937, 10 mg/kg of LDD1937 (dissolved in distilled water at a concentration of 2 mg/ml) were intravenously injected into the mice through the tail vein. A blood sample of approximately 0.12 ml was collected by cardiac puncture. Additionally, in the oral study of LDD1937, 10 mg/kg of LDD1937 (dissolved in the same solution used in the intravenous study) were orally administered to the mice. The analysis of LDD1937 and LDD1940, a metabolite of LDD1937, in biological samples was done with LC-MS/MS using the Waters UPLC-XEVO TQ system (Waters Corporation, Milford, CT, USA). […]1940, and carbamazepine (an internal standard, IS) were ionized in the multiple reaction monitoring mode with an ESI interface for positive ions ([M+H]^+). The turbo ion-spray interface was operated at an ion capillary voltage of 3.0 kV with a desolvation gas flow of 650 l/h and a cone gas flow of 10 l/h at 350°C. […] Separation was done on a reverse-phase C18 column (BEH, […]; Waters, Ireland) with a mobile phase, distilled water containing 0.1% formic acid and acetonitrile, at 30°C. After measuring the concentrations of the LDD1937 and LDD1940, standard methods were used to calculate the pharmacokinetic parameters using a non-compartmental analysis (WinNonlin 2.1; […] Corp., Mountain View, CA, USA).

[2] = test system: FLT3, VEGFR1/2, PDGFRβ, and PKCα/β/γ; parameters: method as in PMID 10888033; conditions: read-out: IC50s against kinases including FLT3, VEGFR1/2, PDGFRβ, and PKCα/β/γ; cited from earlier work
[3] = metabolite LDD1940 after 10 mg/kg LDD1937 intravenous
[4] = metabolite LDD1940 after 10 mg/kg LDD1937 oral

IC50 (FLT3) | Structure (SMILES) | GI50 (MV-4-11 cells) [nM] | also measured
19.2 ± 1.88 nM | COC(=O)c1ccc2c(c1)/C(=C1/Nc3ccccc3/C1=N\OCCBr)C(=O)N2 [Compound 2] | 51 ± 11 | –
7.55 ± 1.01 nM | O=C1Nc2ccc(C(=O)O)cc2/C1=C1/Nc2ccccc2/C1=N\OCCN1CCOCC1 [Compound 12] | > 1000 | –
10.8 ± 2.02 nM | COC(=O)c1ccc2c(c1)/C(=C1/Nc3ccccc3/C1=N\OCCN1CCN(C)CC1)C(=O)N2 [Compound 5] | 11 ± 1.5 | –
– | O=C1Nc2ccc(C(=O)O)cc2/C1=C1/Nc2ccccc2/C1=N\O [Compound 7] | > 1000 | GI50 MV-4-11 (MV-4-11 cells): lack of an anti-proliferative activity
2.45 nM and 2.5 nM | Cl.Cl.O=C1Nc2ccc(C(=O)O)cc2/C1=C1/Nc2ccccc2/C1=N\OCCN1CCNCC1 [LDD1940] | 40 | AUC1940/AUC1937 ([1]; after 10 mg/kg LDD1937 intravenous): 42.7 ± 9.44%; AUC1940/AUC1937 ([1]; after 10 mg/kg LDD1937 oral): 65.3 ± 16.8%; Tmax of LDD1940 ([1]; after intravenous and oral administration of LDD1937, mice (span over both routes)): 1∼15 min; AUC [1, 3]: 54.6 ± 0.592 µg·min/mL; Ae0–24 h [1, 3]: 0.868 ± 0.0333 % of dose; Cmax [1, 3]: 1450 ± 694 µg/mL; GI24 h [1, 3]: 0.719 ± 0.0556 % of dose; Terminal half-life [1, 3]: 2.37 ± 2.02 h; Tmax [1, 3]: 1 (1–1) min; AUC [1, 4]: 1.84 ± 0.0741 µg·min/mL; Ae0–24 h [1, 4]: 0.0787 ± 0.0791 % of dose; Cmax [1, 4]: 8.17 ± 2.44 µg/mL; GI24 h [1, 4]: 0.792 ± 1.09 % of dose; Terminal half-life [1, 4]: 12.4 ± 2.15 h; Tmax [1, 4]: 15 (15–120) min
3.3 ± 0.11 nM | NCCO/N=C1/C(=C2/C(=O)Nc3ccc(C(=O)O)cc32)Nc2ccccc21 [Compound 9] | 150 ± 33 | –
253 ± 81.4 nM | COC(=O)c1ccc2c(c1)/C(=C1/Nc3ccccc3/C1=N\OCCN1CCOCC1)C(=O)N2 [Compound 6] | 53 ± 11 | –
3.3 ± 0.6 nM | CN1CCN(CCO/N=C2/C(=C3/C(=O)Nc4ccc(C(=O)O)cc43)Nc3ccccc32)CC1 [Compound 11] | 176 ± 51 | –

Structure (SMILES) | IC50 (FLT3) | GI50 (MV-4-11 cells) [nM] | also measured
O=C1Nc2ccc(C(=O)O)cc2/C1=C1/Nc2ccccc2/C1=N\OCCBr [Compound 8] | 12.9 ± 0.97 nM | 340 ± 81 | –
COC(=O)c1ccc2c(c1)/C(=C1/Nc3ccccc3/C1=N\OCCN)C(=O)N2 [Compound 3] | 4.5 ± 0.75 nM | 15 ± 3 | –
